Results on two compounds are retold here after patent EP2481744A1, “Aromatic bis-phosphoramidate additives as flame retardants for polymers” (EMPA Eidgenössische Materialprüfungs- und Forschungsanstalt, priority 2011, dated 2012).

≈ marks a conversion by molar mass, not a printed value. Read-outs that look alike come from different tables or passages of the source.

The conditions of data set [1]: deionized water, 16 h.
Data set [2] in a line: Solubility in deionized water (shaking flask, phosphorus content by ICP-OES). The settings on record: 0.5 gm in 50 ml deionized water, 21 °C, 16 hrs.

For orientation: Solubility means the concentration that dissolves in the medium under given conditions. Higher therefore signals a readily soluble substance. For `CCOP(=O)(Nc1ccc(NP(=O)(OCC)OCC)cc1)OCC` [p-PAPTEE, Phosphoramidic acid, 1,4-phenylenebis-, tetraethyl ester], in data set [1], the Solubility worked out at 47 µg/mL (≈ 124 µM).

Take `CC(C)OP(=O)(Nc1ccc(NP(=O)(OC(C)C)OC(C)C)cc1)OC(C)C` [p-PAPTiPE, Phosphoramidic acid, 1,4-phenylenebis-, tetra isopropyl ester]: in data set [2], the Solubility was 56 µg/mL (≈ 128 µM).
